Source: US6762181B1, “Aminomethylpyrrolidine derivatives having aromatic substituents” (Daiichi Pharmaceutical Co., Ltd., priority 1999, dated 2004)
Converted amounts (≈) assume the structure as drawn. Like-named read-outs stand apart in the source and are kept apart here.

Tests used:
Experiment in all cases: Antibacterial activity (MIC), Japan Society of Chemotherapy standard method
Assay type in all cases: cell-based
Ps. aeruginosa 32121 = tested on: Ps. aeruginosa 32121
Method: (§1) Antibacterial activities of the compounds of the invention were measured in accordance with the standard method specified by the Japan Society of Chemotherapy, with the results shown in the following table as MIC values (μg/ml). In this connection, MIC values of levofloxacin (LVFX), ciprofloxacin (CPFX) and 5-amino-7-[3-(R)-[1-(S)-aminoethyl]pyrrolidin-1-yl]-6-fluoro-1-[2-(S)-fluoro-1-(R)-cyclopropyl]-8-methyl-1,4-dihydro-4-oxoquinoline-3-carboxylic acid (control drug 1) described in WO 9623782 are also shown for the sake of comparison with the MIC values of the compounds of the invention.

X. maltophilia IID 1275 = tested on: X. maltophilia IID 1275
Method: as §1

K. pneumoniae TYPE 1 = tested on: K. pneumoniae TYPE 1
Method: as §1

S. aureus FDA 209P = tested on: S. aureus FDA 209P
Method: as §1

S. epidermidis 56500 = tested on: S. epidermidis 56500
Method: as §1

S. aureus 870307 = tested on: S. aureus 870307
Method: as §1

S. flexneri 2A 5503 = tested on: S. flexneri 2A 5503
Method: as §1

Ps. aeruginosa 32104 = tested on: Ps. aeruginosa 32104
Method: as §1

E. faecalis ATCC 19433 = tested on: E. faecalis ATCC 19433
Method: as §1

Str. pneumoniae J24 = tested on: Str. pneumoniae J24
Method: as §1

Str. pyrogenes G-36 = tested on: Str. pyrogenes G-36
Method: as §1

E. coli NIHJ = tested on: E. coli NIHJ
Method: as §1

Ser. marcescens 10100 = tested on: Ser. marcescens 10100
Method: as §1

Pr. Vulgaris O8601 = tested on: Pr. Vulgaris O8601
Method: as §1

[1] = Pseudomonas aeruginosa, 32121, Ps. aeruginosa 32121, read-out: MIC
[2] = Stenotrophomonas maltophilia, IID1275, X. maltophilia IID 1275, read-out: MIC
[3] = Klebsiella pneumoniae, TYPE1, K. pneumoniae TYPE 1, read-out: MIC
[4] = Staphylococcus aureus, FDA209P, read-out: MIC
[5] = Staphylococcus epidermidis, read-out: MIC
[6] = Staphylococcus aureus, 870307, S. aureus 870307, read-out: MIC
[7] = Shigella flexneri, 2A5503, S. flexneri 2A 5503, read-out: MIC
[8] = Pseudomonas aeruginosa, 32104, Ps. aeruginosa 32104, read-out: MIC
[9] = Enterococcus faecalis, ATCC19433, E. faecalis ATCC 19433, read-out: MIC
[10] = Streptococcus pneumoniae, J24, Str. pneumoniae J24, read-out: MIC
[11] = Escherichia coli, read-out: MIC
[12] = Serratia marcescens, 10100, Ser. marcescens 10100, read-out: MIC
[13] = Proteus vulgaris, read-out: MIC

Row | Structure (SMILES) | MIC (Ps. aeruginosa 32121; [1]) [µg/mL] | MIC (X. maltophilia IID 1275; [2]) [µg/mL] | MIC (K. pneumoniae TYPE 1; [3]) [µg/mL] | MIC (S. aureus FDA 209P; [4]) [µg/mL] | MIC (S. epidermidis 56500; [5]) [µg/mL] | MIC (S. aureus 870307; [6]) [µg/mL] | MIC (S. flexneri 2A 5503; [7]) [µg/mL] | MIC (Ps. aeruginosa 32104; [8]) [µg/mL] | MIC (E. faecalis ATCC 19433; [9]) [µg/mL] | MIC (Str. pneumoniae J24; [10]) [µg/mL] | MIC (Str. pyrogenes G-36; read-out: MIC) [µg/mL] | MIC (E. coli NIHJ; [11]) [µg/mL] | MIC (Ser. marcescens 10100; [12]) [µg/mL] | MIC (Pr. Vulgaris O8601; [13]) [µg/mL] | further results
1 | Cc1c(N2CC[C@@H](C(N)c3ccccc3)C2)c(F)c(N)c2c(=O)c(C(=O)O)cn([C@@H]3C[C@@H]3F)c12 (stereo partly drawn) [Example 5, 5-Amino-7-[3-(R)-(1-Amino-1-Phenylmethyl)-1-Pyrrolidinyl]-6-Fluoro-1-[2-(S)-Fluoro-1-(R)-Cyclopropyl]-1,4-Dihydro-8-Methyl-4-Oxoquinoline-3-Carboxylic Acid] | 0.025 (≈ 0.0534 µM) | 0.025 (≈ 0.0534 µM) | 0.013 (≈ 0.0277 µM) | ≤ 0.003 | ≤ 0.003 | ≤ 0.003 | ≤ 0.003 | 0.1 (≈ 0.213 µM) | 0.006 (≈ 0.0128 µM) | ≤ 0.003 | ≤ 0.003 | ≤ 0.003 | 0.025 (≈ 0.0534 µM) | 0.013 (≈ 0.0277 µM) | 
2 | COc1c(N2CC[C@@H](C(N)c3ccccc3)C2)c(F)cc2c(=O)c(C(=O)O)cn([C@@H]3C[C@@H]3F)c12 (stereo partly drawn) [Example 3, 7-[3-(R)-(1-Amino-1-Phenylmethyl)-1-Pyrrolidinyl]-6-Fluoro-1-[2-(S)-Fluoro-1-(R)-Cyclopropyl]-1,4-Dihydro-8-Methoxy-4-Oxoquinoline-3-Carboxylic Acid] | 0.05 (≈ 0.106 µM) | 0.025 (≈ 0.0532 µM) | 0.025 (≈ 0.0532 µM) | ≤ 0.003 | ≤ 0.003 | ≤ 0.003 | ≤ 0.003 | 0.1 (≈ 0.213 µM) | 0.013 (≈ 0.0277 µM) | ≤ 0.003 | ≤ 0.003 | ≤ 0.003 | 0.05 (≈ 0.106 µM) | 0.025 (≈ 0.0532 µM) | 
3 | Cc1c(N2CC[C@@H]([C@H](C)N)C2)c(F)c(N)c2c(=O)c(C(=O)O)cn([C@@H]3C[C@@H]3F)c12 [Control drug 1, 5-amino-7-[3-(R)-[1-(S)-aminoethyl]pyrrolidin-1-yl]-6-fluoro-1-[2-(S)-fluoro-1-(R)-cyclopropyl]-8-methyl-1,4-dihydro-4-oxoquinoline-3-carboxylic acid, reference compound] | 0.05 (≈ 0.123 µM) | 0.2 (≈ 0.492 µM) | 0.05 (≈ 0.123 µM) | ≤ 0.003 | ≤ 0.003 | 0.025 (≈ 0.0615 µM) | 0.006 (≈ 0.0148 µM) | 0.1 (≈ 0.246 µM) | 0.025 (≈ 0.0615 µM) | ≤ 0.003 | ≤ 0.003 | 0.006 (≈ 0.0148 µM) | 0.1 (≈ 0.246 µM) | 0.013 (≈ 0.032 µM) | 
4 | C[C@H]1COc2c(N3CC[C@@H](C(N)c4ccccc4)C3)c(F)cc3c(=O)c(C(=O)O)cn1c23 (stereo partly drawn) [Example 4, 10-[3-(R)-(1-Amino-1-Phenylmethyl)-1-Pyrrolidinyl]-9-Fluoro-2,3-Dihydro-3-(S)-Methyl-7-Oxo-7H-Pyrido [1,2,3,-de] [1,4] Benzoxazine-6-Carboxylic Acid] |  |  |  |  |  |  |  |  |  |  |  |  |  |  | MIC (Ps. aeruginosa 32121; Ps. aeruginosa 32121): 0.05 µg/mL (≈ 0.114 µM); MIC (X. maltophilia IID 1275; X. maltophilia IID 1275): 0.05 µg/mL (≈ 0.114 µM); MIC (K. pneumoniae TYPE 1; K. pneumoniae TYPE 1): 0.025 µg/mL (≈ 0.0571 µM); MIC (S. aureus FDA 209P): ≦0.003 μg/ml; MIC (S. epidermidis 56500): ≦0.003 μg/ml; MIC (S. aureus 870307; S. aureus 870307): ≦0.003 μg/ml; MIC (S. flexneri 2A 5503; S. flexneri 2A 5503): ≦0.003 μg/ml; MIC (Ps. aeruginosa 32104; Ps. aeruginosa 32104): 0.1 µg/mL (≈ 0.229 µM); MIC (E. faecalis ATCC 19433; E. faecalis ATCC 19433): 0.006 µg/mL (≈ 0.0137 µM); MIC (Str. pneumoniae J24; Str. pneumoniae J24): ≦0.003 μg/ml; MIC (Str. pyrogenes G-36): ≦0.003 μg/ml; MIC (E. coli NIHJ): ≦0.003 μg/ml; MIC (Ser. marcescens 10100; Ser. marcescens 10100): 0.025 µg/mL (≈ 0.0571 µM); MIC (Pr. Vulgaris O8601): 0.013 µg/mL (≈ 0.0297 µM)
5 | O=C(O)c1cn(C2CC2)c2cc(N3CCNCC3)c(F)cc2c1=O [CPFX, ciprofloxacin, reference compound] | 0.025 (≈ 0.0754 µM) | 0.78 (≈ 2.35 µM) | 0.025 (≈ 0.0754 µM) | 0.1 (≈ 0.302 µM) | 0.2 (≈ 0.604 µM) | 3.13 (≈ 9.45 µM) | 0.006 (≈ 0.0181 µM) | 0.05 (≈ 0.151 µM) | 0.78 (≈ 2.35 µM) | 0.1 (≈ 0.302 µM) | 1.56 (≈ 4.71 µM) | ≤ 0.003 | 0.025 (≈ 0.0754 µM) | ≤ 0.003 | 
